In ChEMBL document CHEMBL4725318, “New vinyl-1,2,4-triazole derivatives as antimicrobial agents: Synthesis, biological evaluation and molecular docking studies” (2020):
Converted amounts (≈) assume the structure as drawn.

Key:
Type in all cases: functional
Bacillus subtilis [1] = assay: Antibacterial activity against Bacillus subtilis by microdilution method
Pseudomonas fluorescens [2] = assay: Antibacterial activity against Pseudomonas fluorescens by microdilution method
Erwinia amylovora [3] = assay: Antibacterial activity against Erwinia amylovora by microdilution method
[4] = system: Pectobacterium carotovorum; assay: Antibacterial activity against Erwinia carotovora by microdilution method
Xanthomonas campestris [5] = assay: Antibacterial activity against Xanthomonas campestris by microdilution method
Bacillus subtilis [6] = assay: Bactericidal activity against Bacillus subtilis
Pseudomonas fluorescens [7] = assay: Bactericidal activity against Pseudomonas fluorescens
Erwinia amylovora [8] = assay: Bactericidal activity against Erwinia amylovora
[9] = system: Pectobacterium carotovorum; assay: Bactericidal activity against Erwinia carotovora
Xanthomonas campestris [10] = assay: Bactericidal activity against Xanthomonas campestris
Aspergillus fumigatus [11] = assay: Antifungal activity Aspergillus fumigatus by microdilution method
Aspergillus versicolor [12] = assay: Antifungal activity Aspergillus versicolor by microdilution method
Aspergillus ochraceus [13] = assay: Antifungal activity Aspergillus ochraceus by microdilution method
Aspergillus niger [14] = assay: Antifungal activity Aspergillus niger by microdilution method
Trichoderma viride [15] = assay: Antifungal activity Trichoderma viride by microdilution method
Talaromyces funiculosus [16] = assay: Antifungal activity Penicillium funiculosum by microdilution method
Penicillium ochrochloron [17] = assay: Antifungal activity Penicillium ochrochloron by microdilution method
Penicillium cyclopium [18] = assay: Antifungal activity Penicillium verrucosum var. cyclopium by microdilution method
Aspergillus fumigatus [19] = assay: Fungicidal activity Aspergillus fumigatus
Aspergillus versicolor [20] = assay: Fungicidal activity Aspergillus versicolor
Aspergillus ochraceus [21] = assay: Fungicidal activity Aspergillus ochraceus
Aspergillus niger [22] = assay: Fungicidal activity Aspergillus niger
Trichoderma viride [23] = assay: Fungicidal activity Trichoderma viride
Talaromyces funiculosus [24] = assay: Fungicidal activity Penicillium funiculosum
Penicillium ochrochloron [25] = assay: Fungicidal activity Penicillium ochrochloron
Penicillium cyclopium [26] = assay: Fungicidal activity Penicillium verrucosum var. cyclopium

SMILES: CC(C)(C)c1cc(/C=C(/C(=O)c2ccc(Cl)cc2Cl)n2cncn2)cc(C(C)(C)C)c1O
- MIC (Bacillus subtilis [1]): 17 µM (≈ 8.03 µg/mL)
- MIC (Pseudomonas fluorescens [2]): 9 µM (≈ 4.25 µg/mL)
- MIC (Erwinia amylovora [3]): 17 µM (≈ 8.03 µg/mL)
- MIC [4]: 4.5 µM (≈ 2.13 µg/mL)
- MIC (Xanthomonas campestris [5]): 17 µM (≈ 8.03 µg/mL)
- MBC (Bacillus subtilis [6]): 17 µM (≈ 8.03 µg/mL)
- MBC (Pseudomonas fluorescens [7]): 9 µM (≈ 4.25 µg/mL)
- MBC (Erwinia amylovora [8]): 17 µM (≈ 8.03 µg/mL)
- MBC [9]: 9 µM (≈ 4.25 µg/mL)
- MBC (Xanthomonas campestris [10]): 17 µM (≈ 8.03 µg/mL)
- MIC (Aspergillus fumigatus [11]): 80 µM (≈ 37.8 µg/mL)
- MIC (Aspergillus versicolor [12]): 80 µM (≈ 37.8 µg/mL)
- MIC (Aspergillus ochraceus [13]): 60 µM (≈ 28.3 µg/mL)
- MIC (Aspergillus niger [14]): 80 µM (≈ 37.8 µg/mL)
- MIC (Trichoderma viride [15]): 30 µM (≈ 14.2 µg/mL)
- MIC (Talaromyces funiculosus [16]): 120 µM (≈ 56.7 µg/mL)
- MIC (Penicillium ochrochloron [17]): 80 µM (≈ 37.8 µg/mL)
- MIC (Penicillium cyclopium [18]): 160 µM (≈ 75.6 µg/mL)
- MFC (Aspergillus fumigatus [19]): 160 µM (≈ 75.6 µg/mL)
- MFC (Aspergillus versicolor [20]): 160 µM (≈ 75.6 µg/mL)
- MFC (Aspergillus ochraceus [21]): 160 µM (≈ 75.6 µg/mL)
- MFC (Aspergillus niger [22]): 160 µM (≈ 75.6 µg/mL)
- MFC (Trichoderma viride [23]): 80 µM (≈ 37.8 µg/mL)
- MFC (Talaromyces funiculosus [24]): 160 µM (≈ 75.6 µg/mL)
- MFC (Penicillium ochrochloron [25]): 160 µM (≈ 75.6 µg/mL)
- MFC (Penicillium cyclopium [26]): 320 µM (≈ 151 µg/mL)

SMILES: O=C(/C(=C/c1cc([N+](=O)[O-])ccc1O)n1cncn1)c1ccc(Cl)cc1
- MIC (Bacillus subtilis [1]): 2.7 µM (≈ 1 µg/mL)
- MIC (Pseudomonas fluorescens [2]): 1.3 µM (≈ 0.482 µg/mL)
- MIC (Erwinia amylovora [3]): 2.7 µM (≈ 1 µg/mL)
- MIC [4]: 2.7 µM (≈ 1 µg/mL)
- MIC (Xanthomonas campestris [5]): 1.3 µM (≈ 0.482 µg/mL)
- MBC (Bacillus subtilis [6]): 2.7 µM (≈ 1 µg/mL)
- MBC (Pseudomonas fluorescens [7]): 2.7 µM (≈ 1 µg/mL)
- MBC (Erwinia amylovora [8]): 2.7 µM (≈ 1 µg/mL)
- MBC [9]: 2.7 µM (≈ 1 µg/mL)
- MBC (Xanthomonas campestris [10]): 2.7 µM (≈ 1 µg/mL)
- MIC (Aspergillus fumigatus [11]): 200 µM (≈ 74.2 µg/mL)
- MIC (Aspergillus versicolor [12]): 100 µM (≈ 37.1 µg/mL)
- MIC (Aspergillus ochraceus [13]): 100 µM (≈ 37.1 µg/mL)
- MIC (Aspergillus niger [14]): 150 µM (≈ 55.6 µg/mL)
- MIC (Trichoderma viride [15]): 100 µM (≈ 37.1 µg/mL)
- MIC (Talaromyces funiculosus [16]): 150 µM (≈ 55.6 µg/mL)
- MIC (Penicillium ochrochloron [17]): 100 µM (≈ 37.1 µg/mL)
- MIC (Penicillium cyclopium [18]): 200 µM (≈ 74.2 µg/mL)
- MFC (Aspergillus fumigatus [19]): 410 µM (≈ 152 µg/mL)
- MFC (Aspergillus versicolor [20]): 200 µM (≈ 74.2 µg/mL)
- MFC (Aspergillus ochraceus [21]): 200 µM (≈ 74.2 µg/mL)
- MFC (Aspergillus niger [22]): 200 µM (≈ 74.2 µg/mL)
- MFC (Trichoderma viride [23]): 200 µM (≈ 74.2 µg/mL)
- MFC (Talaromyces funiculosus [24]): 200 µM (≈ 74.2 µg/mL)
- MFC (Penicillium ochrochloron [25]): 200 µM (≈ 74.2 µg/mL)
- MFC (Penicillium cyclopium [26]): 410 µM (≈ 152 µg/mL)
